Reference: paper PMC3433420 (PLoS ONE, 2012)
“And” between values parts separate entries of the source, which are not always exact repeats. Equal entries are not always repeated. Where two headings read alike, the source gives them in different places. Residues, ends and D or L forms follow the SMILES beside them.

Key:
SHC3 SH2 domain [1] = target: T1, SHC3 SH2 domain (Homo sapiens, UniProt Q92529); assay: Surface plasmon resonance (Biacore 3000); assay type: binding; design: A randomly selected set of 12 recombinant SH2 domain proteins; thioredoxin; made in house; host or cells: E. coli BL21(DE3)pLysS; settings: SPR, NA = no interaction detected
T1 sequence (Q92529 499-590 limits assumed): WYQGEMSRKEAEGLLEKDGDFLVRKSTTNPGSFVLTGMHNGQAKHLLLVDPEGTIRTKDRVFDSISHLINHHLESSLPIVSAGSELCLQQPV
Description: (§1) All SPR experiments were performed using Biacore 3000 (GE HealthCare, Piscataway, NJ) instrumentation. 6X His-tagged SH2 domain proteins were immobilized on a nitriloacetic acid (NTA) sensor chip (GE HealthCare, Piscataway, NJ) charged with Ni^2+ ions. Dye-free ErbB family peptides were applied to the sensor chip in a single flow cell in solution phase (while the other flow cell was used as a reference control) and binding events were measured under equilibrium conditions. FP false positive [drawing 7] (FPR), false discovery [drawing 8] (FDR), and false negative [drawing 9] (FNR) rates were calculated by defining true positives (TP) as interactions detected by both FP and SPR, true negatives (TN) as interactions detected by neither FP nor SPR; false positives as interactions identified by FP but not validated by SPR; and false negatives (FN) as interactions missed by FP but detected by SPR. Additional details for all methods are provided in the Supplementary Methods.
(§2) Fresh protein stocks were generated so as to avoid bias incurred from proteins previously used in the FP assays. […]

PIK3R3-C SH2 domain [2] = target: T2, PIK3R3-C SH2 domain (Homo sapiens, UniProt Q92569); assay: biochemical; assay type: binding; settings: FP, PIK3R3-C; mean; NA = no interaction detected
T2 construct: thioredoxin; made in house; host or cells: E. coli BL21(DE3)pLysS

TNS3 SH2 domain = target: T3, TNS3 SH2 domain (Homo sapiens, UniProt Q68CZ2); assay: FP saturation binding assay
T3 sequence (Q68CZ2 1172-1282 limits assumed): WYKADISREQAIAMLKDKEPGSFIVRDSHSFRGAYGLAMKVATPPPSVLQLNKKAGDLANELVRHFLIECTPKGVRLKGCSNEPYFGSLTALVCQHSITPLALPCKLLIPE

SHC3 SH2 domain [3] = target: T1, SHC3 SH2 domain; assay: FP saturation binding assay
PIK3R3-C SH2 domain [4] = target: T2, PIK3R3-C SH2 domain; assay: Surface plasmon resonance (Biacore 3000); assay type: binding; settings: SPR, NA = no interaction detected
Description: as §1
A randomly selected set of 12 recombinant SH2 domain proteins and unlabeled (rhodamine dye free) peptides (9 ErbB, 2 GAB1, 2 KIT, 2 MET) were generated for the surface plasmon resonance (SPR) validation study. The 6X His-tagged SH2 domain proteins used in the assay, PLCG1-C, SHC4, VAV2, TNS3, PIK3R3-C, SYK-C, PIK3R1-N, SUPT6H, CRKL, TEC, SHB, and SHC3 were produced and purified as previously described (see “SH2 and PTB domain proteins” section and Jones et al., 2006). Fresh protein stocks were generated so as to avoid bias incurred from proteins previously used in the FP assays. 13-mer peptides corresponding to ErbB1 pY801, ErbB1 pY900, ErbB1 pY978, ErbB1 pY1069, ErbB2 pY685, ErbB pY803, ErbB3 pY912, ErbB4 pY833, ErbB4 pY906, GAB1 pY183, GAB1 pY472, KIT pY570, KIT pY936, MET pY1093 and MET pY1313, were synthesized successfully for the assay using previously described approaches (see “FP competitor peptide synthesis” section). For SPR detection via the Biacore 3000 (GE HealthCare, Piscataway, NJ), His-tagged SH2 domains were immobilized on Biacore NTA sensor chips (GE HealthCare, Piscataway, NJ) pre-charged with Ni^2+ ions in one flow cell while the second served as a negative control reference cell. Peptides were introduced in solution phase to both cells and relative response units (RUs) were recorded from output sensograms. Nine concentrations of peptide and a buffer control, in duplicate, were used to determine KDs using the equilibrium method (best-fit simultaneous modeling for peptide association and disassociation curves).

[5] = target: PIK3R2-NC tandem SH2 domains (Homo sapiens, UniProt O00459); assay: FP saturation binding assay
Chain of PIK3R2-NC tandem SH2 domains (O00459 330-716 limits assumed): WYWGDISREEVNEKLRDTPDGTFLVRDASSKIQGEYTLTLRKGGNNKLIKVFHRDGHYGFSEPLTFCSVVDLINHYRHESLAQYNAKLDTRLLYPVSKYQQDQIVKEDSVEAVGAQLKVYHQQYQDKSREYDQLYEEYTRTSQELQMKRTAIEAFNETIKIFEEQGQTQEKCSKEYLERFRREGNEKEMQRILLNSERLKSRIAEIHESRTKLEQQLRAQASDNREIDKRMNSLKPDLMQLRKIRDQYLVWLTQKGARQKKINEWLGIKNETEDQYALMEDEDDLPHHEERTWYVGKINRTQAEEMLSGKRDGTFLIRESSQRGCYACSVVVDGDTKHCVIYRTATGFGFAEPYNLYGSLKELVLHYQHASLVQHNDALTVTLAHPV

SHC2-PTB domain = SHC2-PTB domain (Homo sapiens, UniProt P98077); assay: FP saturation binding assay
Chain of SHC2-PTB domain (P98077 147-329 limits assumed): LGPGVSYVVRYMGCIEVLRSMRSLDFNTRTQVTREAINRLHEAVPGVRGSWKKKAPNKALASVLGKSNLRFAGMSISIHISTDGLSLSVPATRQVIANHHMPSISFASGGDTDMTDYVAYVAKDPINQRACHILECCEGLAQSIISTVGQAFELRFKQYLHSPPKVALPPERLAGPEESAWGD

SRC SH2 domain = target: T4, SRC SH2 domain (Homo sapiens, UniProt P12931); assay: FP competition assay; assay type: binding; settings: labeled peptide ErbB3pY1222, Fig. 3 graph B, read-out: Ki (obs)
T4 construct: between the c-Src SH2 domain and ErbB1 in our FP assay; 6X His; thioredoxin; made in house; host or cells: E. coli BL21(DE3)pLysS
T4 sequence (P12931 151-248 limits assumed): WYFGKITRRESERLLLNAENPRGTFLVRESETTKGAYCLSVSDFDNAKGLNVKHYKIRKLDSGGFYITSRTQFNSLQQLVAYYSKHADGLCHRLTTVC
Description: (§3) Unlabeled phosphopeptides were synthesized with some modifications to the previously described protocol. […] Unlabeled competitor peptides were prepared at 11 serial 1∶3 dilutions in assay buffer; one control with no unlabeled competitor peptides was also included with each experimental set. The fluorescent peptide, protein, and unlabeled peptide mixtures were allowed to incubate for a minimum of 20 minutes in 384-well plates and polarization signals were measured using the Analyst GT multimode reader as previously described above. Inhibition curves were constructed by four-parameter log-logistic regression using the “drc” package in R with the parameters for maximum and minimum fluorescence fixed according to Z’ factor positive and negative control values. IC50 values were estimated from these fits under a one-site competition binding model and Ki calculated according to the equation developed by.

PIK3R1-N SH2 domain [6] = target: T5, PIK3R1-N SH2 domain (Homo sapiens, UniProt P27986); assay: biochemical; assay type: binding; settings: FP, PIK3R1-N; mean; NA = no interaction detected
T5 construct: thioredoxin; made in house; host or cells: E. coli BL21(DE3)pLysS
T5 sequence (P27986 333-428 limits assumed): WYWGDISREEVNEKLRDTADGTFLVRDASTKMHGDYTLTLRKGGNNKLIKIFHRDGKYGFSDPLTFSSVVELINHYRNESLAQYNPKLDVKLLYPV

PIK3R1-N SH2 domain [7] = target: T5, PIK3R1-N SH2 domain; assay: Surface plasmon resonance (Biacore 3000); assay type: binding; settings: SPR, NA = no interaction detected
Description: as §1, §2

SH2 and PTB domains = assay: In-house protein microarrays (with or without 5 mM DTT), protein named per line; assay type: binding, human; settings: in-house protein microarray, protein named in c0 of the line, sheet ErbB4 pY733 (18-mer)
Description: 300 pL of purified recombinant proteins and a thioredoxin tag control were spotted at a concentration of ∼40 µM in duplicate onto aldehyde-coated microscope slides (Erie Scientific Company, Portsmouth, NH) using a Nano-Plotter (NP) 2.1/E noncontact microarrayer (GeSiM, Munich, Germany). 16 identical microarrays per slide were printed in a 2×8 (column by row) format with distances of 9 mm between individual arrays; each array consisted of a 14×14 configuration of spots 400 µm apart. Following printing at a constant humidity level of 50%, slides were desiccated overnight and stored at −80°C. For peptide probing, array slides were transferred to 96-well microplates (TeleChem International, Inc., Sunnyvale, CA) and sandwiched with silicone gaskets. Prior to peptide addition, aldehyde sites were quenched with buffer B (20 mM HEPES, 100 mM KCl, 0.1% Tween-20, 5 mM DTT, pH 7.8) containing 1% bovine serum albumin (BSA) (w/v) for one hour at room temperature; moderate agitation was applied in a plate shaker (IKA, Germany) to displace glycerol from the surface area of protein sample spots. […] The arrays were subsequently washed once with 300 µL of buffer B and once with 300 µL of ddH2O. Residual water was removed by centrifugation; slides were stored under desiccation in the dark until analysis.
Microarray slides were scanned at a resolution of 10 µm using a GenePix 4000B microarray scanner and analyzed using GenePix Pro v6.0 software (Molecular Devices, Sunnyvale, CA). To independently visualize protein spots irrespective of peptide binding, samples were printed simultaneously with 400 nM of Cyanine-5 (Cy5) labeled bovine serum albumin (BSA). […] Following spot layout identification via Cy5 labeled BSA, the mean fluorescence intensity of rhodamine for duplicate protein spots was quantified and normalized by subtracting the corresponding mean fluorescence intensity of thioredoxin. Normalized fluorescence values were then imported into MATLAB and KDs determined as previously described.

GRB7 SH2 domain [8] = target: T6, GRB7 SH2 domain (Homo sapiens, UniProt Q14451); assay: FP competition assay; assay type: binding; design: 6X His; thioredoxin; made in house; host or cells: E. coli BL21(DE3)pLysS; settings: labeled peptide ErbB3pY1197, Fig. 3 graph C, read-out: Ki (obs)
T6 sequence (Q14451 431-527 limits assumed): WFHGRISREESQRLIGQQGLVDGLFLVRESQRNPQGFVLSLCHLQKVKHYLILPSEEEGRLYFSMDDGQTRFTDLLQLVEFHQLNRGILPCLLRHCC
Description: as §3

RASA1-N SH2 domain [9] = target: T7, RASA1-N SH2 domain (Homo sapiens, UniProt P20936); assay: FP competition assay; assay type: binding; design: 6X His; thioredoxin; made in house; host or cells: E. coli BL21(DE3)pLysS; settings: RASA1N, Fig. 3 graph A, read-out: Ki (obs)
T7 sequence (P20936 181-272 limits assumed): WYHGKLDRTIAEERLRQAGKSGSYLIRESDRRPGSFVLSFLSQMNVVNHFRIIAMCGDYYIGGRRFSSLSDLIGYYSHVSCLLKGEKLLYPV
Description: as §3

GRB7 SH2 domain [10] = target: T6, GRB7 SH2 domain; assay: FP saturation binding assay; settings: read-out: Ki ( exp FP); competing peptide, GRB7; Ki expected from FP; NI = no interaction
RASA1-N SH2 domain [11] = target: T7, RASA1-N SH2 domain; assay: FP saturation binding assay

CC[C@H](C)[C@H](NC(=O)[C@@H](NC(=O)[C@@H](NC(=O)CNC(=O)[C@H](Cc1ccc(OP(=O)(O)O)cc1)NC(=O)[C@H](CO)NC(=O)[C@H](Cc1c[nH]c2ccccc12)NC(=O)[C@@H](NC(=O)[C@@H](N)CC(=O)O)C(C)C)C(C)C)[C@@H](C)O)C(=O)N[C@@H](Cc1c[nH]c2ccccc12)C(=O)N[C@@H](CCC(=O)O)C(=O)N[C@@H](CC(C)C)C(=O)N[C@@H](CC(=O)O)C(=O)O [ErbB4 906] (HELM PEPTIDE1{D.V.W.S.[O=C([C@H](Cc1ccc(OP(=O)(O)O)cc1)N[*:1])[*:2]].G.V.T.I.W.E.L.D}$$$$V2.0)
Kd (SHC3 SH2 domain [1]): 6.71 µM | Kd (PIK3R3-C SH2 domain [2]): 1.84 µM | Kd (TNS3 SH2 domain): 0.8 µM | Kd (SHC3 SH2 domain [3]): 0.54 µM | Kd (PIK3R3-C SH2 domain [4]): 0.566 µM

CC(C)C[C@H](NC(=O)[C@H](CCC(=O)O)NC(=O)[C@H](Cc1c[nH]c2ccccc12)NC(=O)[C@@H](NC(=O)[C@@H](NC(=O)[C@@H](NC(=O)CNC(=O)[C@H](Cc1ccc(O)cc1)NC(=O)[C@H](CO)NC(=O)[C@H](Cc1c[nH]c2ccccc12)NC(=O)[C@@H](NC(=O)[C@@H](N)CC(=O)O)C(C)C)C(C)C)[C@@H](C)O)C(C)C)C(=O)N[C@@H](CC(=O)O)C(=O)O [ErbB1 Y900 (non-phospho)]
Kd [5]: 6.93 µM | Kd (SHC2-PTB domain): 5.42 µM

CSCC[C@H](NC(=O)[C@H](Cc1ccc(O)cc1)NC(=O)[C@H](CCC(=O)O)NC(=O)[C@H](Cc1ccc(OP(=O)(O)O)cc1)NC(=O)CNC(=O)[C@H](CC(C)C)NC(=O)[C@H](CCC(=O)O)NC(=O)[C@@H](N)CCC(=O)O)C(=O)N[C@@H](CC(=O)O)C(=O)N[C@H](C(=O)NCC(=O)N[C@@H](CO)C(=O)N[C@@H](CC(=O)O)C(=O)O)C(C)C [ErbB3 pY1222] (HELM PEPTIDE1{E.E.L.G.[O=C([C@H](Cc1ccc(OP(=O)(O)O)cc1)N[*:1])[*:2]].E.Y.M.D.V.G.S.D}$$$$V2.0)
Ki (SRC SH2 domain): 2.36 µM

CC[C@H](C)[C@H](NC(=O)[C@@H](N)CCCCN)C(=O)N[C@@H](CCCNC(=N)N)C(=O)N[C@@H](CCCCN)C(=O)N[C@@H](Cc1ccc(OP(=O)(O)O)cc1)C(=O)N[C@H](C(=O)N[C@@H](CCSC)C(=O)N[C@@H](CCCNC(=N)N)C(=O)N[C@@H](CCCNC(=N)N)C(=O)N[C@@H](CC(C)C)C(=O)N[C@@H](CC(C)C)C(=O)N[C@@H](CCC(N)=O)C(=O)N[C@@H](CC(=O)O)C(=O)O)[C@@H](C)O [ErbB2 685] (HELM PEPTIDE1{K.I.R.K.[O=C([C@H](Cc1ccc(OP(=O)(O)O)cc1)N[*:1])[*:2]].T.M.R.R.L.L.Q.D}$$$$V2.0)
Kd (PIK3R3-C SH2 domain [2]): 4.43 µM | Kd (PIK3R1-N SH2 domain [6]): 2.51 µM | Kd (PIK3R3-C SH2 domain [4]): 1.52 µM | Kd (PIK3R1-N SH2 domain [7]): 13.4 µM

LGSGAFGTVpYKGIWVPEd [ErbB4 pY733 (18-mer), N-terminally rhodamine-labeled 18-mer phosphopeptide]
Kd (SH2 and PTB domains; PM Assay Replicate # 39307, Array Fabrication # 39320): 0.8 µM and 0.4 µM | Kd (SH2 and PTB domains; PM Assay Replicate # 39334, Array Fabrication # 39329): 0.79 µM

CC(C)C[C@H](NC(=O)[C@H](Cc1ccc(OP(=O)(O)O)cc1)NC(=O)[C@H](CCC(=O)O)NC(=O)[C@@H]1CCCN1C(=O)[C@H](CC(N)=O)NC(=O)[C@@H](N)CCC(=O)O)C(=O)N[C@H](C(=O)N1CCC[C@H]1C(=O)N[C@@H](CCC(N)=O)C(=O)NCC(=O)NCC(=O)N[C@@H](C)C(=O)N[C@@H](CC(=O)O)C(=O)O)[C@@H](C)O [ErbB2 pY1196]
Ki (GRB7 SH2 domain [8]): 10.9 µM | Ki (RASA1-N SH2 domain [9]; labeled peptide ErbB2pY1196): 2.29 µM | Ki (RASA1-N SH2 domain [9]; labeled peptide ErbB3pY1307): 3.54 µM | Ki (GRB7 SH2 domain [10]): > 20 µM | Kd (RASA1-N SH2 domain [11]): 1.86 µM
